# Article PMC10095932 (Molecules, 2023)
# pEC50: −log10 of the molar value. Where two headings read alike, the source gives them in different places. Where a SMILES comes first, the peptide text is derived from it. Bridges are numbered along the chain shown (N, C = ends).
# Experiments:
# [1] = biological target: T1, human NPR-A (Homo sapiens, UniProt P16066); assay: cGMP ALPHAscreen, cGMP production in HEK 293 cells transiently overexpressing hNPR-A; assay type: cell-based; conditions: HEK 293 cells overexpressing hNPR-A; for Emax at 10 µM: HEK293, read-out: cGMP production, % of the maximum response (compared with DNP, hANP, hBNP); for pEC50: 30 min at 37 °C, cGMP ALPHAscreen, three separate experiments in triplicate, read-out: hNPR-A EC50 (95% CI), potency to stimulate cGMP production
# T1 construct: expressed in transfected cells; host or cells: HEK 293 cells, transient, Lipofectamine 2000
# T1 sequence (P16066 33-1061): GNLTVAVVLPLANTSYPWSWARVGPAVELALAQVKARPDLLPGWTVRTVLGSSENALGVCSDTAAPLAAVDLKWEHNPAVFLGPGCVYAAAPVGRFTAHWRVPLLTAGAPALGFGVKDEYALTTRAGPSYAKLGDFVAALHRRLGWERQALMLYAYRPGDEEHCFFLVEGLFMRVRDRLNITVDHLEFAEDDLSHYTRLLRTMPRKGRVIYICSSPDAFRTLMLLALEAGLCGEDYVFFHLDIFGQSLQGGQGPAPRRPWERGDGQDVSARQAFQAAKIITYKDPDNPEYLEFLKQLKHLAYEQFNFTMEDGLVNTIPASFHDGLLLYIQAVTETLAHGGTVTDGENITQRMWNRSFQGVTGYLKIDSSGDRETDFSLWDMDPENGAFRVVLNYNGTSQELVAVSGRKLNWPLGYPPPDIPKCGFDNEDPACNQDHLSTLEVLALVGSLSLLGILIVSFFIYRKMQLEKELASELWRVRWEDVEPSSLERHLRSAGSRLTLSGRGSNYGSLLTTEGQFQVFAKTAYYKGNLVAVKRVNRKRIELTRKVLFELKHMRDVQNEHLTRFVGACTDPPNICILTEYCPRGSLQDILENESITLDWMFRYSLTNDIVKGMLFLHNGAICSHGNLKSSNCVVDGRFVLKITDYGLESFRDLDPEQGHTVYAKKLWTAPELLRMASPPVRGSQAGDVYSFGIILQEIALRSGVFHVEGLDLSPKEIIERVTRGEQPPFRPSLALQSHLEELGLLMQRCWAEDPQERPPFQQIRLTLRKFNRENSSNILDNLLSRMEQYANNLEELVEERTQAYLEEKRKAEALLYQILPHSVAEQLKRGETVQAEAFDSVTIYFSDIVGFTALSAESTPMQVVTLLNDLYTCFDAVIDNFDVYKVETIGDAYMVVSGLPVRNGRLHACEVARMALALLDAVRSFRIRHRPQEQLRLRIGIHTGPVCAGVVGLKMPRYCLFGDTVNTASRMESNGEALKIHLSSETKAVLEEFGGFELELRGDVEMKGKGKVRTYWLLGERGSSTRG
# Description: (§1) Cells were cultured at 5% CO2 and 37 °C. HEK 293 cells were cultured in high glucose DMEM (Gibco, Carlsbad, CA, USA) supplemented with 10% FBS, and 1% penicillin/streptomycin. HEK 293 cells were seeded in media lacking penicillin/streptomycin 24 to 48 h pre-transfection. PC12 cells were cultured in high glucose DMEM (Gibco) supplemented with 10% FBS and 1% penicillin/streptomycin.
# HEK 293 cells were transfected using the lipofectamine 2000 transfection protocol (Invitrogen). Cells (95% confluence) were transfected with 45% pcDNA3.1/hNPR-A, 45% pcDNA3.1, and 10% pEGFP-NI to the optimal DNA concentration specified in the protocol. The co-transfection with pEGFP-NI plasmid allowed the determination of the transfection efficiency. This was assessed by the estimation of the number of GFP-expressing cells using an Olympus IX70 inverted fluorescence microscope. Transfected cells were used for assay purposes within 24 h.
# (§2) The cGMP ALPHAscreen was performed using the ALPHAscreen Protein A detection kit and the biotinylated cGMP supplement (Perkin Elmer, Waltham, MA, USA) with rabbit anti-cGMP polyclonal antibody (Biovision, Mountain View, CA, USA). Cells were detached from the flask and the resulting pellet was resuspended in stimulation buffer (HBSS supplemented with 0.1% w/v BSA and 1 mM IBMX at 37 °C). Cells were added to a white 384-well Optiplate (Perkin Elmer, Waltham, USA) to 30,000 cells per well for HEK 293 cells and 10,000 cells per well for PC12 cells. Cells were incubated with different concentrations of test peptides (concentration range of 1 × 10^−5 to 1 × 10^−11 M in stimulation buffer) at 37 °C for 30 min. Cells were lysed with lysis buffer (1 M HEPES, 0.3% Tween-20, 1% BSA in H2O, pH 7.4). Then 5 μL acceptor-bead mix was added to each well under subdued lighting conditions, followed by 5 μL of donor-bead mix. Plates were incubated for ~12 h, slowly shaking at room temperature. After incubation, the ALPHAscreen signal was measured using an EnVision plate reader (Perkin Elmer). The standard curve consisted of cGMP in a concentration range of 1 × 10^−6 to 1 × 10^−12 M. All data points were acquired in triplicate and were analyzed using GraphPad Prism 5.0 software (GraphPad Software, Inc., San Diego, CA, USA).
# [2] = biological target: T2, rat NPR-A (Rattus norvegicus, UniProt P18910); assay: cGMP ALPHAscreen, cGMP production in PC12 cells; assay type: cell-based; conditions: for pEC50: PC12 cells, cGMP ALPHAscreen
# T2 construct: endogenous in cells; host or cells: rat PC12 cells
# T2 sequence (P18910 29-1057): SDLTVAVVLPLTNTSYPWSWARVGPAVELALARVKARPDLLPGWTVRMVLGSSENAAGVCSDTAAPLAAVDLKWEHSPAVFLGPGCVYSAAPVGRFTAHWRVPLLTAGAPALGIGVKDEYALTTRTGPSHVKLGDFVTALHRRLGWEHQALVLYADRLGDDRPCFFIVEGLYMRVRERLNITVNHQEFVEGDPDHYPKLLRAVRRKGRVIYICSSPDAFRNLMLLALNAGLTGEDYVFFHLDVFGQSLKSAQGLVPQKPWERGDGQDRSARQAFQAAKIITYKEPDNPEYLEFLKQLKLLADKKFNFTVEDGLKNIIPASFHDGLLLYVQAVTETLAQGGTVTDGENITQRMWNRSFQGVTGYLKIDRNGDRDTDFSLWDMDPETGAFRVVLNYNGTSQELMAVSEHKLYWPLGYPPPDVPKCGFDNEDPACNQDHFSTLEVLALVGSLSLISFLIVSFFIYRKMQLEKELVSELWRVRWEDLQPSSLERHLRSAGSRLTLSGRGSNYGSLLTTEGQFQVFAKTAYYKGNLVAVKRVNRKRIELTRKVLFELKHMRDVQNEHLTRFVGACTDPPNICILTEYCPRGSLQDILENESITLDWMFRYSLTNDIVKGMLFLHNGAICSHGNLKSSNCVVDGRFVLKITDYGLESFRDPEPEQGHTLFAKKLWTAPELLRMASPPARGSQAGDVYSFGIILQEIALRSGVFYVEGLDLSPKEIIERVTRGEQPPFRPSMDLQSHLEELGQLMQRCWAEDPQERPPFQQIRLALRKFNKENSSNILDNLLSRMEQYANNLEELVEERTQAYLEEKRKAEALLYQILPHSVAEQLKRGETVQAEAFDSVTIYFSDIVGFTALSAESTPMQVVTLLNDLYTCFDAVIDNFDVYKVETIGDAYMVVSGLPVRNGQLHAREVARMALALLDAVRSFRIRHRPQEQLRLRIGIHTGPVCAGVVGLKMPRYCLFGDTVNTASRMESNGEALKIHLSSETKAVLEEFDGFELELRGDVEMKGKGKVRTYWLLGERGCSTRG
# Description: NP activity can be determined by the effectiveness of the peptide to elicit cGMP production through NPR-A. The cGMP ALPHAscreen evaluates the ability of peptides to stimulate cGMP production in cells through a non-radioactive, homogenous, proximity assay which encompasses […]. […] In order to evaluate the potency of TNPa-e at rNPR-A, TNPa-e were evaluated using the cGMP ALPHAscreen in rat PC12 cells.
# as §1, §2
# [3] = 30 min at 37 °C, three to five separate experiments in triplicate, read-out: rNPR-A EC50 (95% CI), potency to stimulate cGMP production
SMILES,Emax at 10 µM [1],pEC50 [1],"pEC50 [2, 3]",pEC50 ([2]; read-out: EC50 at rNPR-A),selectivity / difference in potency for rNPR-A over hNPR-A ([2]; rNPR-A (PC12) versus hNPR-A (HEK 293) cGMP potency)
CC[C@H](C)[C@H](NC(=O)[C@H](CCCCN)NC(=O)[C@H](CO)NC(=O)[C@H](CC(=O)O)NC(=O)[C@@H](N)CO)C(=O)NCC(=O)N[C@@H](CC(=O)O)C(=O)NCC(=O)N[C@H]1CSSC[C@@H](C(=O)N[C@@H](CC(N)=O)C(=O)N[C@@H](CCCNC(=N)N)C(=O)N2CCC[C@H]2C(=O)N[C@H](C(=O)N[C@@H](CCC(N)=O)C(=O)N[C@@H](CC(N)=O)C(=O)N[C@@H](CCCNC(=N)N)C(=O)N2CCC[C@H]2C(=O)N[C@@H](CCCCN)C(=O)N[C@@H](CCCCN)C(=O)O)C(C)C)NC(=O)CNC(=O)[C@H](CC(C)C)NC(=O)CNC(=O)[C@H](CO)NC(=O)[C@H](C(C)C)NC(=O)[C@H](CO)NC(=O)CNC(=O)[C@H]([C@@H](C)CC)NC(=O)[C@H](Cc2c[nH]cn2)NC(=O)[C@H](CC(=O)O)NC(=O)[C@H](CC(C)C)NC(=O)[C@@H]2CCCN2C(=O)[C@H](CC(C)C)NC(=O)CNC(=O)[C@H](Cc2ccccc2)NC1=O [TNPa] (H-SDSKIGDGCFGLPLDHIGSVSGLGCNRPVQNRPKK-OH; disulfide 9-25),< 20%,< 5.00,5.69,< 6.00,–
CC[C@H](C)[C@@H]1NC(=O)[C@H](Cc2c[nH]cn2)NC(=O)[C@H](CC(=O)O)NC(=O)[C@H](CC(C)C)NC(=O)[C@@H]2CCCN2C(=O)[C@H](CC(C)C)NC(=O)CNC(=O)[C@H](Cc2ccccc2)NC(=O)[C@@H](NC(=O)CNC(=O)[C@H](CC(=O)O)NC(=O)CNC(=O)[C@@H](NC(=O)[C@H](CCCCN)NC(=O)[C@@H]2CCCN2C(=O)[C@H](CC(=O)O)NC(=O)[C@@H](N)CO)[C@@H](C)CC)CSSC[C@@H](C(=O)N[C@@H](CC(N)=O)C(=O)N[C@@H](CCCNC(=N)N)C(=O)N2CCC[C@H]2C(=O)N[C@H](C(=O)N[C@@H](CCC(N)=O)C(=O)N[C@@H](CC(N)=O)C(=O)N[C@@H](CCCNC(=N)N)C(=O)N2CCC[C@H]2C(=O)N[C@@H](CCCCN)C(=O)N[C@@H](CCCCN)C(=O)O)C(C)C)NC(=O)CNC(=O)[C@H](CC(C)C)NC(=O)CNC(=O)[C@H](CO)NC(=O)[C@H](C(C)C)NC(=O)[C@H](CO)NC(=O)CNC1=O [TNPb] (H-SDPKIGDGCFGLPLDHIGSVSGLGCNRPVQNRPKK-OH; disulfide 9-25),~30%,< 5.00,5.92,< 6.00,–
CC[C@H](C)[C@@H]1NC(=O)[C@H](CCCNC(=N)N)NC(=O)[C@H](CC(=O)O)NC(=O)[C@H]([C@@H](C)CC)NC(=O)[C@@H]2CCCN2C(=O)[C@H](Cc2ccccc2)NC(=O)CNC(=O)[C@H](Cc2ccccc2)NC(=O)[C@@H](NC(=O)CNC(=O)[C@H](CC(N)=O)NC(=O)CNC(=O)[C@@H](NC(=O)[C@H](CCCCN)NC(=O)[C@@H]2CCCN2C(=O)[C@H](CC(=O)O)NC(=O)[C@@H](N)CO)[C@@H](C)CC)CSSC[C@@H](C(=O)N[C@@H](CC(N)=O)C(=O)N[C@@H](CCCNC(=N)N)C(=O)N[C@@H](CC(C)C)C(=O)N[C@H](C(=O)N[C@@H](CCC(N)=O)C(=O)N[C@@H](CC(N)=O)C(=O)N2CCC[C@H]2C(=O)N2CCC[C@H]2C(=O)N[C@@H](CCCCN)C(=O)N2CCC[C@H]2C(=O)N[C@H](C(=O)N[C@@H](CO)C(=O)NCC(=O)N[C@@H](CCC(=O)O)C(=O)N[C@@H](CO)C(=O)O)[C@@H](C)CC)C(C)C)NC(=O)CNC(=O)[C@H](CC(C)C)NC(=O)CNC(=O)[C@H](CO)NC(=O)[C@H](C(C)C)NC(=O)[C@H](CO)NC(=O)CNC1=O [TNPd] (H-SDPKIGNGCFGFPIDRIGSVSGLGCNRLVQNPPKPISGES-OH; disulfide 9-25),~30%,< 5.00,7.74,–,560 fold
